From US8372854B2, “Pyrrolo[2,3-D]pyrimidine compounds” (Pfizer Inc., priority 2009, dated 2013)

Legend:
Assay type in all cases: biochemical
[1] = target: T1, JAK3 (Homo sapiens, UniProt P52333); assay: JAK enzymatic assay (peptide mobility shift), JAK3; conditions: recombinant JAK3 1 nM, ATP 4 μM, 1 μM JAKtide peptide, 90 minutes
T1 construct: purchased Invitrogen Corporation, Madison, Wis; PV3855
T1 sequence (P52333 1-1124): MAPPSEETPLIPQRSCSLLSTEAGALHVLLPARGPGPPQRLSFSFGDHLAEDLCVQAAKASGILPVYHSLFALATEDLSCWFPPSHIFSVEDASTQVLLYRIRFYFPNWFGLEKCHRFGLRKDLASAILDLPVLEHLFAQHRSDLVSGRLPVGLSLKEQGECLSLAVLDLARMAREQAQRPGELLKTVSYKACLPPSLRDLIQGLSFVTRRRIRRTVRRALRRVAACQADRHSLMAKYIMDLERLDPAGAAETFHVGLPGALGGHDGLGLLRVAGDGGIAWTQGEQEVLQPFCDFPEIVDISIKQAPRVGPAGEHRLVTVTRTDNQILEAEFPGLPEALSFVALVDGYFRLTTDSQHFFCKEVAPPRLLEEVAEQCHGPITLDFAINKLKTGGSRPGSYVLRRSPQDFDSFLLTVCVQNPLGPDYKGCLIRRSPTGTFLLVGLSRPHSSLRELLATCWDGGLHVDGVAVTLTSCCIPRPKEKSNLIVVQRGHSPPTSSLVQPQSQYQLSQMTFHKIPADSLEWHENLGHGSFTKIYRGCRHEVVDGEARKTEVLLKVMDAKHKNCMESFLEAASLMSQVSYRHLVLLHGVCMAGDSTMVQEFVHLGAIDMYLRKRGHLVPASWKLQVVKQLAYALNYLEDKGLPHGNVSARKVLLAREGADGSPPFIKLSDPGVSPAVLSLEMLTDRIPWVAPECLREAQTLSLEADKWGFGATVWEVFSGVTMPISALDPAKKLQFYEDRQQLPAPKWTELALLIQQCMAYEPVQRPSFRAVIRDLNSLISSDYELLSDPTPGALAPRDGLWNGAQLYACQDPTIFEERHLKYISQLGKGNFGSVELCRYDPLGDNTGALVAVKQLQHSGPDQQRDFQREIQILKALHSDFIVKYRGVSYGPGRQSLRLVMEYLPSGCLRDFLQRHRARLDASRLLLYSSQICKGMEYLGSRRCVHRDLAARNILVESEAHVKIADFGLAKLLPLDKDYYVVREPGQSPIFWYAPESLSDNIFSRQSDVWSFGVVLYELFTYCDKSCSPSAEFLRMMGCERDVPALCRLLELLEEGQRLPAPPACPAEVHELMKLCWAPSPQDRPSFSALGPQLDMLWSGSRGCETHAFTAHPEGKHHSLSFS
From the text: Recombinant JAK1 (Catalog Number PV4775), JAK2 (Catalog Number PV4210) and JAK3 (Catalog Number PV3855) were purchased from (Invitrogen Corporation, Madison, Wis.). Tyk2 (His-Tyk2 (888-1182, C936S, C1142S)) used in this study was expressed and purified at Pfizer Laboratories. Adenosine 5′-triphosphate (ATP) was obtained from (Sigma Chemical Company, St. Louis, Mo.). […] Coating Reagent 3 was purchased from (Caliper Life Sciences, Hopkinton, Mass.).
(§1) A peptide mobility shift assay was used to quantify the phosphorylation of the JAKtide (JAK2 and JAK3) or the IRS-1 peptide ([…] and Tyk2). Reactions were carried out in a 384-well plate (Matrical MP-101) in a 10 μL total volume. Reaction mixtures contained 20 mM HEPES, pH 7.4, 10 mM magnesium chloride, 0.01% bovine serum albumin (BSA), 0.0005% Tween-20, ATP (4 μM for JAK2 and JAK3, 40 μM for JAK1 and 7 μM for Tyk2)), 2% DMSO and 1 μM peptide substrate (JAKtide for JAK2 and JAK3 and IRS-1 peptide for JAK1 and Tyk2). Compounds were diluted serially in 100% dimethyl sulfoxide and tested in an 11 point dose response in duplicate or quadruplicate (200 nl of compound/DMSO was added per 10 μL reaction). The reactions were initiated by the addition of enzyme to the final concentration of 2 nM JAK2, 1 nM JAK3, 12 nM Tyk2 or 20 nM JAK1. The assay was run for 240 minutes for JAK1, 150 minutes for JAK2, 90 minutes for JAK3 and 70 minutes for Tyk2. The assays were stopped at the specified times with 20 uL of 140 mM HEPES, 22.5 mM EDTA and 0.15% Coating Reagent 3. The plates were placed on a LabChip 3000 (LC3000) instrument from (Caliper Life Sciences) to measure the formation of phosphorylated peptide. Data was analyzed using Hits Well Analyzer Software from (Caliper Life Sciences) to obtain the amount of product formed.
(§2) Data was then imported into an internal application where each data point is expressed as % inhibition based on uninhibited and no enzyme controls. Dose-response data is then fit using a 4 parameter logistic equation (Equation 1) to determine an IC50.
(§3) Where max is the fitted uninhibited value, min is the fitted complete inhibition value, and s is the slope factor.

[2] = target: T2, JAK2 (Homo sapiens, UniProt O60674); assay: JAK enzymatic assay (peptide mobility shift), JAK2; conditions: recombinant JAK2 2 nM, ATP 4 μM, 1 μM JAKtide peptide, 150 minutes
T2 construct: purchased Invitrogen Corporation, Madison, Wis; PV4210
T2 sequence (O60674 whole entry): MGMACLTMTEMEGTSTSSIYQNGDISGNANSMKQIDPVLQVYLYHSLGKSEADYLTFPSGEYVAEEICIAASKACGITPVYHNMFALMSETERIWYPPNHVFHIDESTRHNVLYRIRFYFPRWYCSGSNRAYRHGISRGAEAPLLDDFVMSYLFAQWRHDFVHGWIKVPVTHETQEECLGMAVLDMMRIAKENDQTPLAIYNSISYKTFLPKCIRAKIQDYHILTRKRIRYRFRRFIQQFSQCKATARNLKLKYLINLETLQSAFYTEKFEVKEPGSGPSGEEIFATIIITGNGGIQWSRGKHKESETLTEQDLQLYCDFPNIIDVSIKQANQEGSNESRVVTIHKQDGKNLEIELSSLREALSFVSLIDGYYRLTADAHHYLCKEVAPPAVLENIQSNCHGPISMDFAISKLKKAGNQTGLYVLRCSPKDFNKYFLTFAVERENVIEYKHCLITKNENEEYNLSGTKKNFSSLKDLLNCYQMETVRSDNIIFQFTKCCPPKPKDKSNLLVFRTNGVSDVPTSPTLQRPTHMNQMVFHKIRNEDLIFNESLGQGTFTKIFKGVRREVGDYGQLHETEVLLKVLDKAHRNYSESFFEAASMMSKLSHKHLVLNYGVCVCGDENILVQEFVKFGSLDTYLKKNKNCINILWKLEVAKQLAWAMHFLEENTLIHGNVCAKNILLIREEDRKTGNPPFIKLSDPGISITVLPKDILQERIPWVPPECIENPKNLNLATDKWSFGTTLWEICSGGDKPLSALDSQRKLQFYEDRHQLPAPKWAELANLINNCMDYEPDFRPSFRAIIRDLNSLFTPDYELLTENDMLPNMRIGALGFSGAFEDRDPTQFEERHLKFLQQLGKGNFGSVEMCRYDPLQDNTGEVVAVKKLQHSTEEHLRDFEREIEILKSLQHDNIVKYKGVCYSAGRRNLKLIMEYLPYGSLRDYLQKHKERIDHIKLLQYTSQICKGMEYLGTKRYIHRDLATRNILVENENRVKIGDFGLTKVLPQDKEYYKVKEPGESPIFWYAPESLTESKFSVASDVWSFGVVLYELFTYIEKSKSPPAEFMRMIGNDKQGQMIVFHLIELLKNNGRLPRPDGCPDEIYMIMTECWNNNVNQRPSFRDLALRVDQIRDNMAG
From the text: (§4) Recombinant JAK1 (Catalog Number PV4775), JAK2 (Catalog Number PV4210) and JAK3 (Catalog Number PV3855) were purchased from (Invitrogen Corporation, Madison, Wis.). Tyk2 (His-Tyk2 (888-1182, C936S, C1142S)) used in this study was expressed and purified at Pfizer Laboratories. Adenosine 5′-triphosphate (ATP) was obtained from (Sigma Chemical Company, St. Louis, Mo.). The JAKtide peptide (peptide sequence, FITC-[…]) used for the JAK2 and JAK3 assays and the IRS-1 peptide (peptide sequence, 5-FAM-[…]) used for the JAK1 and Tyk2 assays were purchased from (American Peptide Company, Sunnyvale, Calif.). Coating Reagent 3 was purchased from (Caliper Life Sciences, Hopkinton, Mass.).
as §1, §2, §3

[3] = target: T3, JAK1 (Homo sapiens, UniProt P23458); assay: JAK enzymatic assay (peptide mobility shift), JAK1; conditions: recombinant JAK1 20 nM, ATP 40 μM, 1 μM IRS-1 peptide, 240 minutes
T3 construct: purchased Invitrogen Corporation, Madison, Wis; PV4775
T3 sequence (P23458 whole entry): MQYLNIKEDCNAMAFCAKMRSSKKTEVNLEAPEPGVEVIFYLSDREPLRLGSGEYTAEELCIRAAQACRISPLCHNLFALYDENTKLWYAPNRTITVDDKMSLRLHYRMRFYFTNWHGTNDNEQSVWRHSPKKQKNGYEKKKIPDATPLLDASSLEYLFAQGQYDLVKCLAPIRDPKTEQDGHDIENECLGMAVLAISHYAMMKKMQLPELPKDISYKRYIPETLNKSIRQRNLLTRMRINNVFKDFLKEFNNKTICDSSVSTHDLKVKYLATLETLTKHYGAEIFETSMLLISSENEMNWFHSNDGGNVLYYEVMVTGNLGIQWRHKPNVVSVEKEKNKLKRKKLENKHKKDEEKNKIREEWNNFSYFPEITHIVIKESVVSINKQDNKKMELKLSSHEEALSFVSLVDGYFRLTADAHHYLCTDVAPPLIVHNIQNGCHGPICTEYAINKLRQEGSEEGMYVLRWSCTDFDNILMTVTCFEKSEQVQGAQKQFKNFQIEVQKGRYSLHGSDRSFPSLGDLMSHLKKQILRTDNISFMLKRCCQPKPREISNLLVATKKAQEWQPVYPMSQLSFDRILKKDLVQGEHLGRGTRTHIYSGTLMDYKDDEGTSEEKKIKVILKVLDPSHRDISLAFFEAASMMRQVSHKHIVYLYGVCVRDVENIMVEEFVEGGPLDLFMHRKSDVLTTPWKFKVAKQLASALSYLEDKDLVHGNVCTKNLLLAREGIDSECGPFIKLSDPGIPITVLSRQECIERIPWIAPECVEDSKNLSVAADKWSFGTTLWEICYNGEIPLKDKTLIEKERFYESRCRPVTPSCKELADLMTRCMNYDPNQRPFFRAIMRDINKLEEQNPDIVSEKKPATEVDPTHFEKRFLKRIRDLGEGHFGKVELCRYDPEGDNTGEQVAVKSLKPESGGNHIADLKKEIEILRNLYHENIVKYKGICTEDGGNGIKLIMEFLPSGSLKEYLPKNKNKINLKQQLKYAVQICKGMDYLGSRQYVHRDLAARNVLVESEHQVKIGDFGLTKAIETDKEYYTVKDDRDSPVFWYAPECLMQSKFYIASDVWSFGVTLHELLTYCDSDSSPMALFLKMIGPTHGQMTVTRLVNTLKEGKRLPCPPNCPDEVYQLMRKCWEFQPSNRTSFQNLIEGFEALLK
From the text: as §4, §1, §2, §3

IC50 [1] | IC50 [2] | IC50 [3] | SMILES
212 nM | 33.3 nM | 8.73 nM | CN(c1ncnc2[nH]ccc12)[C@H]1CC[C@H](CS(=O)(=O)N[C@H]2CC[C@H](C(C)(C)O)CC2)CC1 [Example 37, N-[trans-4-(1-hydroxy-1-methylethyl)cyclohexyl]-1-{trans-4-[methyl(7H-pyrrolo[2,3-d]pyrimidin-4-yl)amino]cyclohexyl}-methanesulfonamide]
526 nM | 64.2 nM | 21.4 nM | C[C@H](O)CNS(=O)(=O)C[C@H]1CC[C@H](N(C)c2ncnc3[nH]ccc23)CC1 [Example 49, N-[(2S)-2-hydroxypropyl]-1-{trans-4-[methyl(7H-pyrrolo[2,3-d]pyrimidin-4-yl)amino]cyclohexyl}-methanesulfonamide]
237 nM | 20.2 nM | 23.3 nM | Cc1cc(C)nc(CNS(=O)(=O)C[C@H]2CC[C@H](N(C)c3ncnc4[nH]ccc34)CC2)n1 [Example 51, N-[(4,6-dimethylpyrimidin-2-yl)methyl]-1-{trans-4-[methyl(7H-pyrrolo[2,3-d]-pyrimidin-4-yl)amino]cyclohexyl}-methanesulfonamide]
119 nM | 34.7 nM | 11.5 nM | CN(c1ncnc2[nH]ccc12)[C@H]1CC[C@@H](CS(=O)(=O)NCCc2ccccc2)CC1 [Example 53, 1-{cis-4-[methyl(7H-pyrrolo[2,3-d]pyrimidin-4-yl)amino]cyclohexyl}-N-(2-phenylethyl)-methanesulfonamide]
355 nM | 18.4 nM | 15.6 nM | CN(c1ncnc2[nH]ccc12)[C@H]1CC[C@H](CS(=O)(=O)N[C@@H]2CCC[C@@H]2c2ccc(F)cc2)CC1 [Example 46, N-[(1R,2R)-2-(4-fluoro-phenyl)cyclopentyl]-1-{trans-4-[methyl(7H-pyrrolo[2,3-d]pyrimidin-4-yl)amino]cyclohexyl}-methanesulfonamide]
101 nM | 11.8 nM | 4.22 nM | CN(c1ncnc2[nH]ccc12)[C@H]1CC[C@H](CS(=O)(=O)NCC(F)(F)c2ccccc2)CC1 [Example 6, N-(2,2-difluoro-2-phenyl-ethyl)-1-{trans-4-[methyl-(7H-pyrrolo[2,3-d]pyrimidin-4-yl)amino]cyclohexyl}-methanesulfonamide]
139 nM | 9.17 nM | 3.01 nM | Cc1ccc(CCNS(=O)(=O)C[C@H]2CC[C@H](N(C)c3ncnc4[nH]ccc34)CC2)c(C)c1 [Example 4, N-[2-(2,4-dimethylphenyl)-ethyl]-1-{trans-4-[methyl-(7H-pyrrolo[2,3-d]pyrimidin-4-yl)amino]cyclohexyl}-methanesulfonamide]
342 nM | 30.5 nM | 18.6 nM | Cc1cc(NS(=O)(=O)C[C@H]2CC[C@H](N(C)c3ncnc4[nH]ccc34)CC2)n[nH]1 [Example 23, N-(5-methyl-1H-pyrazol-3-yl)-1-{trans-4-[methyl(7H-pyrrolo[2,3-d]pyrimidin-4-yl)amino]cyclohexyl}-methanesulfonamide]
182 nM | 29.4 nM | 13.5 nM | CN(c1ncnc2[nH]ccc12)[C@H]1CC[C@H](CS(=O)(=O)NCc2ccccc2)CC1 [Example 16, N-benzyl-1-{trans-4-[methyl-(7H-pyrrolo[2,3-d]pyrimidin-4-yl)amino]-cyclohexyl}-methanesulfonamide]
224 nM | 24.7 nM | 6.76 nM | Cc1cc2cc(CNS(=O)(=O)C[C@H]3CC[C@H](N(C)c4ncnc5[nH]ccc45)CC3)ccc2[nH]1 [Example 34, N-[(2-methyl-1H-indol-5-yl)methyl]-1-{trans-4-[methyl(7H-pyrrolo[2,3-d]-pyrimidin-4-yl)amino]-cyclohexyl}-methanesulfonamide]
54.3 nM | 7.47 nM | 2.19 nM | CN(c1ncnc2[nH]ccc12)[C@H]1CC[C@H](CS(=O)(=O)Nc2ccc3c(c2)OCCCO3)CC1 [Example 27, N-(3,4-dihydro-2H-1,5-benzodioxepin-7-yl)-1-{trans-4-[methyl(7H-pyrrolo[2,3-d]-pyrimidin-4-yl)amino]-cyclo-hexyl}methanesulfonamide]
